Our source for the IC50 values is patent publication US12365685B2, “Substituted fused aromatic ring derivative, composition and use thereof” (Shenzhen TargetRx, Inc., priority 2019, dated 2025).

In test [1] the test system is Ba/F3 FLT3-ITD cells. Kind of test: Cytotoxicity assay, Ba/F3 FLT3-ITD (CellTiter-Glo). Type of test: cell-based. To be noted: 72 hrs, CTG. The source says:
(§1) Inhibitory effect of example compounds on the activity of Ba/F3 KIF5B-RET and Ba/F3 FLT3-ITD cells was detected.
(§2) Materials and reagents: fetal bovine serum (FBS) (GIBCO, Cat. No. 10099141), CellTiter-Glo® Luminescent Cell Viability Assay (Promega, Cat #G7572), 96-well clear flat-bottom black-wall plate (Corning®, Cat #3603).
(§3) • 1. Cells in the logarithmic growth phase were harvested and counted with a […]. Cell viability was detected by a trypan blue exclusion method, ensuring that cell viability was 90% or more; • 2. The cell concentration was adjusted to 3000 cells/well; 90 μl of cell suspension was added to each well of the 96-well plate; • 3. The cells in the 96-well plate were incubated overnight under the condition of 37° C., 5% CO2, and 95% humidity. Dilution and Addition of Compound: • 1. 10-fold compound solutions were formulated by 3.16-fold serial dilution starting from a concentration of 10 μM, resulting in 9 concentrations. 10 μL of the compound solutions were added in each well of the 96-well plate seeded with cells in triplicate for each compound concentration; • 2. The cells in the 96-well plate added with compounds were further incubated under the condition of 37° C., 5% CO2, and 95% humidity for 72 hrs, and then CTG analysis was carried out. Plate Reading at the End: • 1. CTG reagent was thawed, and the cell plate was equilibrated at room temperature for 30 minutes; • 2. An equal volume ([…]) of CTG solution was added to each well; • 3. The cell plate was shaken on an orbital shaker for 5 minutes to lyse the cells; • 4. The cell plate was placed at RT for 20 minutes to stabilize the luminescence signal; • 5. Luminescence value was read. Data Processing
(§4) Data were analyzed by GraphPad Prism 5.0 software, and fitted by nonlinear S-curve regression to obtain a dose-response curve, from which IC50 values were calculated, wherein A indicates IC50≤10 nM, B indicates 10 nM<IC50≤50 nM, C indicates 50 nM<IC50≤100 nM, and D indicates IC50>100 nM. cell survival (%)=(Lumtest compound−Lumculture medium control)/(Lumcell control−Lumculture medium control)×100%.
(ATP-based viability assays read luminescence as a measure of living cells.)

Test [2] deals with Ba/F3 parental. Kind of test: Cytotoxicity assay, Ba/F3 parental (CellTiter-Glo). It counts as cell-based. To be noted: Mus musculus, BaF3; 72 hrs, CTG.
Description: [Worded in the source for another cell line; this cell line is reported under the same test.] as §1, §2, §3, §4

In test [3] the test system is Ba/F3 KIF5B-RET cells. Briefly: Cytotoxicity assay, Ba/F3 KIF5B-RET (CellTiter-Glo). It counts as cell-based. Conditions: Mus musculus, BaF3; 72 hrs, CTG.
Description: as §1, §2, §3, §4

In test [4] the target is RET V804M (Homo sapiens (Human), UniProt P07949, V804M). Briefly: Inhibition of kinase, RET V804M (HTRF KinEASE-TK). It counts as biochemical. Conditions: reaction 20 minutes at room temperature. As to the method: (§5) Ret wt (Carna, Cat. No. 08-159-10 ug), RET (V804M), Active (Signalchem, Cat. No. R02-12GG), HTRF KinEASE-TK kit (Cisbio, Cat. No. 62TK0PEC), CEP-32496 (MCE, Cat. No. HY-15200), ATP (Sigma, Cat. No. A7699), DMSO (Sigma, Cat. No. D8418-1L), DTT (Sigma, Cat. No. D0632), MgCl2 (Sigma, Cat. No. M1028), 384-well plate (Labcyte, Cat. No. P-05525-BC).
(§6) Formulation of compound: The test compounds were dissolved in DMSO to obtain 10 mM stock solutions, which were then serially diluted 3-fold in DMSO to obtain 10 concentrations. At the time of addition, the compound was further diluted 10-fold with buffer.
(§7) In 5× kinase buffer A, Ret wt or RET V804M kinase was mixed with different concentrations of compounds prepared by pre-dilution for 10 minutes. Each concentration was tested in duplicate. The corresponding substrate and ATP were added, and reaction was performed at room temperature for 20 minutes (negative and positive controls were provided: the negative control was a blank control, and the positive control was CEP-32496). After completion of the reaction, detection reagents (reagents in the HTRF KinEASE-TK kit) were added. After incubating for 30 minutes at room temperature, enzyme activity in the presence of various concentrations of the compounds of the present disclosure was determined by Envision microplate reader, and inhibitory activity of different concentrations of the compounds on enzyme activity was calculated. The inhibitory activity of different concentrations of the compounds on enzyme activity was fitted by Graphpad 5.0 software, and the IC50 value was calculated, wherein A indicates IC50 10 nM, B indicates 10 nM<IC50≤50 nM, C indicates 50 nM<IC50≤100 nM, and D indicates IC50>100 nM.

Test [5] has as its target Ret wt (Homo sapiens (Human), UniProt P07949). Briefly: Inhibition of kinase, Ret wt (HTRF KinEASE-TK). Type of test: biochemical. The protocol: as §5, §6, §7
On the technique in general: In TR-FRET formats the signal depends on donor and acceptor labels being close together.

In test [6] the test system is Ba/F3 FLT3-ITD^F691L. Kind of test: Cytotoxicity assay, Ba/F3 FLT3-ITD F691L (CellTiter-Glo). To be noted: Mus musculus, BaF3; 72 hrs, CTG. Type of test: cell-based.
In test [7] the test system is Ba/F3 KIF5B-RET^V804M. Kind of test: Cytotoxicity assay, Ba/F3 KIF5B-RET V804M (CellTiter-Glo). It counts as cell-based. To be noted: Mus musculus, BaF3; 72 hrs, CTG.
Description: [Worded in the source for another variant; this variant is reported under the same test.] as §1, §2, §3, §4

In test [8] the test system is Ba/F3 FLT3-ITD^D835Y. Kind of test: Cytotoxicity assay, Ba/F3 FLT3-ITD D835Y (CellTiter-Glo). It counts as cell-based. To be noted: Mus musculus, BaF3; 72 hrs, CTG.
Description: [Worded in the source for another variant; this variant is reported under the same test.] as §1, §2, §3, §4

Setting [9] is: HTRF KinEASE-TK, reaction 20 minutes at room temperature, read-out: Ret wt IC50.

Molecules are shown by their SMILES. Read-outs that look alike come from different tables or passages of the source.

Ret wt, sequence (P07949 29-1114): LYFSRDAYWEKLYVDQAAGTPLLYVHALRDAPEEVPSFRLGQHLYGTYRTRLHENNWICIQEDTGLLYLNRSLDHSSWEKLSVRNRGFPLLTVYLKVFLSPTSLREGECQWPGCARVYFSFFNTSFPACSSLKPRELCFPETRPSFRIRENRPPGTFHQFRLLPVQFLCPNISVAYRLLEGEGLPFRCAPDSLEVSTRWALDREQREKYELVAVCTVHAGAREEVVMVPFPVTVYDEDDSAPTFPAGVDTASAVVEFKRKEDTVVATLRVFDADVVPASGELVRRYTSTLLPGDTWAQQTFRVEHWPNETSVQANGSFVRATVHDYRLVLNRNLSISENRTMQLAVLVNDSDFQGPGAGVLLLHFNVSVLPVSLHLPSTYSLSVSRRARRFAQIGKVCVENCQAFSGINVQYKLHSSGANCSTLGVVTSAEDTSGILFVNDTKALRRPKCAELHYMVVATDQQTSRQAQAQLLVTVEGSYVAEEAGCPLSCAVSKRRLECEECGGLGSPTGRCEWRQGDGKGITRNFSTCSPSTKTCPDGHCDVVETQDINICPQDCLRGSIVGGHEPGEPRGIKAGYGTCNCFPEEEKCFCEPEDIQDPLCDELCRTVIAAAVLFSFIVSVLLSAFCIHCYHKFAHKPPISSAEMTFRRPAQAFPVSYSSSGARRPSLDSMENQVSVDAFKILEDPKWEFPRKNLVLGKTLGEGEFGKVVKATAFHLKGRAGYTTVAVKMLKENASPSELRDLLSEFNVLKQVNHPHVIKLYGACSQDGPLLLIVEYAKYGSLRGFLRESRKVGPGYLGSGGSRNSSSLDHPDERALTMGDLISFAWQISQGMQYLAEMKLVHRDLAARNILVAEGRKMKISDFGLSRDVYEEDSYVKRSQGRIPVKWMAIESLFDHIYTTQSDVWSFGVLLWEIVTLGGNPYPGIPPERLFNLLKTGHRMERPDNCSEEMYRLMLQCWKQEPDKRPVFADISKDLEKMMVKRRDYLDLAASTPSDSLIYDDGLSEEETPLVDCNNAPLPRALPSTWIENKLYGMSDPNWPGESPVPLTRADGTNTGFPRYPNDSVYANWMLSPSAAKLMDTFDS
RET V804M, sequence (P07949 29-1114 V804M): as the sequence (P07949 29-1114) above, with V776M counted along it

As for `Cn1cc(-c2cnn3c(-c4ccc(NC(=O)Nc5cc(C(F)(F)F)ccc5F)cc4)cnc3c2)cn1` [Compound T-1, 1-(2-fluoro-5-(trifluoromethyl)phenyl)-3-(4-(7-(1-methyl-1H-pyrazol-4-yl)imidazo[1,2-b]pyridazin-3-yl)phenyl)urea], the IC50 in test [1] is 2.32 nM; in test [2], 1090 nM; in test [3], 534 nM; in test [4], 75.8 nM; in test [5] (setting [9]) it was greater than 100 nM.
For `Cn1cc(-c2cnn3c(-c4ccc(CC(=O)Nc5cc(C(C)(C)C(F)(F)F)on5)cc4)cnc3c2)cn1` [Compound T-2, 2-(4-(7-(1-methyl-1H-pyrazol-4-yl)imidazo[1,2-b]pyridazin-3-yl)phenyl)-N-(5-(1,1,1-trifluoro-2-methylpropan-2-yl)isoxazol-3-yl)acetamide], the IC50 in test [1] was 0.79 nM; in test [6], 1.43 nM; in test [7], 17.9 nM; in test [2] it was 3270 nM; in test [3], 4.91 nM; in test [4], 0.4 nM. Besides, the IC50 in test [5] (setting [9]) is 0.18 nM; in test [8], 1.22 nM.
In the case of `Cn1cc(-c2cc3ncc(-c4ccc(CC(=O)Nc5cc(C(C)(C)C(F)(F)F)on5)cn4)n3cn2)cn1` [Compound T-3, 2-(6-(7-(1-methyl-1H-pyrazol-4-yl)imidazo[1,2-c]pyrimidin-3-yl)pyridin-3-yl)-N-(5-(1,1,1-trifluoro-2-methylpropan-2-yl)isoxazol-3-yl)acetamide], the IC50 in test [1] turned out to be 0.2 nM; in test [6], 13.5 nM; in test [7], 125 nM; in test [2] it was 8070 nM; in test [3], 51.2 nM; in test [4], 0.21 nM. Besides, the IC50 in test [5] (setting [9]) amounted to 0.13 nM; in test [8], 9.08 nM.
For the compound `Cn1cc(-c2cc3ncc(-c4ccc(CC(=O)Nc5cc(C(C)(C)C(F)(F)F)on5)cc4)n3cn2)cn1` [Compound T-4, 2-(4-(7-(1-methyl-1H-pyrazol-4-yl)imidazo[1,2-c]pyrimidin-3-yl)phenyl)-N-(5-(1,1,1-trifluoro-2-methylpropan-2-yl)isoxazol-3-yl)acetamide], the IC50 worked out at 0.49 nM in test [1], 7.17 nM in test [3], 0.28 nM in test [4] and 0.16 nM in test [5] (setting [9]).
In the case of `Cn1cc(Nc2nccn3c(-c4ccc(CC(=O)Nc5cc(C(C)(C)C(F)(F)F)on5)cc4)cnc23)cn1` [Compound T-5, 2-(4-(8-((1-methyl-1H-pyrazol-4-yl)amino)imidazo[1,2-a]pyrazin-3-yl)phenyl)-N-(5-(1,1,1-trifluoro-2-methylpropan-2-yl)isoxazol-3-yl)acetamide], the IC50 stood at 0.1 nM in test [1]; 1.43 nM in test [6]; 5.43 nM in test [7]; 2270 nM in test [2]; 2.48 nM in test [3]; 0.8 nM in test [4]. The half-inhibitory concentration (IC50) in test [5] (setting [9]) came to 0.25 nM; in test [8] it was 1.43 nM.
In the case of `Cn1cc(Nc2ccnn3c(-c4ccc(CC(=O)Nc5cc(C(C)(C)C(F)(F)F)on5)cc4)cnc23)cn1` [Compound T-6, 2-(4-(8-((1-methyl-1H-pyrazol-4-yl)amino)imidazo[1,2-b]pyridazin-3-yl)phenyl)-N-(5-(1,1,1-trifluoro-2-methylpropan-2-yl)isoxazol-3-yl)acetamide], the IC50 in test [1] is 1.05 nM; in test [6] it was 1.24 nM; in test [7] it was 20.9 nM; in test [2], 2180 nM; in test [3] it was 6.2 nM; in test [4] it was 1.04 nM. For the same compound, the half-maximal inhibitory concentration (IC50) in test [5] (setting [9]) was determined as 0.45 nM; in test [8], 2.38 nM.
Consider `Cn1cc(-c2cnn3c(-c4ccc(CC(=O)Nc5cc(C(C)(C)C(F)(F)F)on5)c(F)c4)cnc3c2)cn1` [Compound T-7, 2-(2-fluoro-4-(7-(1-methyl-1H-pyrazol-4-yl)imidazo[1,2-b]pyridazin-3-yl)phenyl)-N-(5-(1,1,1-trifluoro-2-methylpropan-2-yl)isoxazol-3-yl)acetamide], for which the IC50 in test [1] was determined as 0.19 nM; in test [6], 1.15 nM; in test [7] it was 10.8 nM; in test [2], 1820 nM; in test [3] it was 2.3 nM; in test [4] it was 0.2 nM. The values for the IC50 in test [5] (setting [9]) and in test [8] were 0.15 nM and 1.15 nM, respectively.
Turning to `Cn1cc(-c2cc3ncc(-c4ccc(CC(=O)Nc5cc(C(C)(C)C(F)(F)F)on5)c(F)c4)n3cn2)cn1` [Compound T-8, 2-(2-fluoro-4-(7-(1-methyl-1H-pyrazol-4-yl)imidazo[1,2-c]pyrimidin-3-yl)phenyl)-N-(5-(1,1,1-trifluoro-2-methylpropan-2-yl)isoxazol-3-yl)acetamide], the IC50 in test [3] was 15.4 nM; in test [4], 0.35 nM; in test [5] (setting [9]), 0.1 nM; in test [5] (read-out: IC50 against Ret wt) it was less than 0.2 nM.
With `Cn1cc(-c2cnn3c(-c4ccc(CC(=O)Nc5cc(C(C)(C)C(F)(F)F)on5)cn4)cnc3c2)cn1` [Compound T-9, 2-(6-(7-(1-methyl-1H-pyrazol-4-yl)imidazo[1,2-b]pyridazin-3-yl)pyridin-3-yl)-N-(5-(1,1,1-trifluoro-2-methylpropan-2-yl)isoxazol-3-yl)acetamide], the IC50 is 0.51 nM in test [1]; 15.7 nM in test [6]; 559 nM in test [7]; greater than 10000 nM in test [2]; 60.8 nM in test [3]; 0.48 nM in test [4]. Further, the IC50 in test [5] (setting [9]) came to 0.24 nM; in test [8] it was 10.6 nM.
In the case of `Cn1cc(-c2cnc3c(-c4ccc(CC(=O)Nc5cc(C(C)(C)C(F)(F)F)on5)cc4)cnn3c2)cn1` [Compound T-10, 2-(4-(6-(1-methyl-1H-pyrazol-4-yl)pyrazolo[1,5-a]pyrimidin-3-yl)phenyl)-N-(5-(1,1,1-trifluoro-2-methylpropan-2-yl)isoxazol-3-yl)acetamide], the 50% inhibitory concentration (IC50) is less than 0.1 nM in test [1]; 1.02 nM in test [6]; 8.15 nM in test [7]; 930 nM in test [2]; 9.98 nM in test [3]; 0.23 nM in test [4]. In addition, the IC50 in test [5] (setting [9]) came to 0.1 nM; in test [8] it was 1.83 nM.
With `Cn1cc(-c2cn3ncc(-c4ccc(CC(=O)Nc5cc(C(C)(C)C(F)(F)F)on5)cc4)c3cn2)cn1` [Compound T-12, 2-(4-(6-(1-methyl-1H-pyrazol-4-yl)pyrazolo[1,5-a]pyrazin-3-yl)phenyl)-N-(5-(1,1,1-trifluoro-2-methylpropan-2-yl)isoxazol-3-yl)acetamide], the figures for the IC50 in test [3], in test [4] and in test [5] (setting [9]) were 9.98 nM, 1.12 nM and 0.31 nM, respectively.

What is called IC50 is the concentration needed to halve the response being measured.
